The values that follow come from paper PMC13095408, “DBeQ derivative targets vacuolar protein sorting 4 functions in cancer cells and suppresses tumor growth in mice” (The Journal of Pharmacology and Experimental Therapeutics, 2025).

In one series the test system is U2OS cells. Description: Live-cell quantification of YOYO-3-positive dead cells. It is filed as cell-based. The procedure: To measure caspase activity, cells cultured in white opaque-bottom 384-well plates were incubated in the presence or absence of 1 μg/mL Dox for 24 hours. Caspase-Glo 8 or 3/7 reagent was then added 1:1 and allowed to incubate for 90 minutes at RT followed by luminescence measurement using the CLARIOstar microplate reader (BMG LABTECH). Signals had background luminescence subtracted and then normalized to the respective Dox-untreated i-GFP-expressing parental controls to obtain relative CASP8-like LETDase or CASP3/7-like DEVDase activities. For live-cell quantification, the cells seeded on black clear-bottom 96-well plates were incubated with the indicated compounds (0.1% to 0.3% DMSO final) in the presence of 100 nM YOYO-3, a cell-impermeant DNA-binding fluorescent probe that stains membrane integrity-impaired, dead cells. […] Phase and fluorescence images were obtained at the indicated intervals using the IncuCyte S3 Live-Cell Analysis System (Essen BioScience; 10× objective) and then analyzed using the Cell-by-Cell Analysis module (Essen BioScience; 9600-0031) of IncuCyte S3 Software (Essen BioScience; Version 2019B Rev2). To quantify the percentage of dead GFP-expressing cells, the GFP and YOYO-3 double-positive cell population was divided by the total GFP-positive cell population.

The next series in a line: Thermodynamic solubility. It is filed as physicochemical. As to conditions: FaSSIF-V2 buffer, thermodynamic from solid; In FaSSIF-V2, pH 6.5.
Series [1] can be described thus: Human liver microsomal stability. Type of series: in vitro ADME. The following applies: Human liver microsomes, 1 μM of compound. The procedure: All in vitro absorption, distribution, metabolism, and excretion (ADME) studies were conducted by BioDuro-Sundia. […] Caco-2 permeability, human liver microsomal stability, and human plasma protein binding assays as well as liquid chromatography-mass spectrometry/mass spectrometry analyses were performed following standard protocols previously described in detail ([Kazakova et al, 2023]).
On the technique in general: Liver microsomes are vesicles of endoplasmic reticulum, rich in cytochrome P450 enzymes.

In brackets after ≈: the same amount, converted by molar mass.

As for `COc1cccc2c(NCc3ccccc3)nc(NCc3ccccc3)nc12` [Compound 4-107, N^2,N^4-dibenzyl-8-methoxyquinazoline-2,4-diamine], the “cell death (YOYO-3-positive dead cells)” value with U2OS cells (2 μM 4-107, WT U2OS cells) is given as “induced cell death in a time-dependent manner”. In addition, the “enhanced temporal sensitivity of VPS4A- and VPS4B-deficient cells compared with WT cells” value in the series on U2OS cells (2 μM 4-107, crVPS4A, crVPS4B vs WT U2OS) is “about 12 hours”. The same compound came in with a thermodynamic solubility at 16 h in “Thermodynamic solubility” of 17 µM (≈ 6.3 µg/mL). For the same compound, in series [1], the “Liver microsomal stability, remaining after 1 h” value came to 71.83%. In addition, the microsomal CLint at 1 μM in series [1] (read-out: In vitro intrinsic clearance, Clint) is 11.8 µL/min/mg. Moreover, the half-life at 1 μM in series [1] (read-out: Liver microsomal stability, T1/2) was determined as 1.95 h.

By thermodynamic solubility is commonly meant solubility found after equilibrating the solid with the medium.
